Legend:
[1] = test system: Human cutaneous squamous cell carcinoma cell A-431; experiment: Cell proliferation inhibition test, A-431; type: cell-based; conditions: A-431, 96 h, 4 days incubation
Protocol: Human cutaneous squamous cell carcinoma cell A-431 (ATCC, CRL-1555) and actinic keratosis patient-derived cell HT 297.T (ATCC, CRL-7782) proliferation assays were used to detect the inhibitory effect of small molecular compounds on cell proliferation.
A-431 cells and HT 297.T cells were cultured in DMEM medium containing 10% fetal bovine serum and grown at 37°C in a 5% CO2 incubator. Cells on logarithmic phase were seeded into a 96-well cell culture plate at 1000 cells/well, 100 µL per well, and then cultured overnight at 37°C in a 5% CO2 incubator. The next day, 100 µL of gradient-diluted 2× test compound solution was added to each well, with DMSO serving as a positive control, and 10 µM staurosporine (Aladdin, S102392) was set as a negative control group. After the addition of the compounds, the culture plate was incubated for another 4 days at 37°C in a 5% CO2 incubator. After incubation, the Steady-Glo® luciferase assay system (Promega, G9243) was used according to the supplier's instructions to measure the fluorescence signal value on the Envision 2104 Multilabel Reader. The inhibition rate was calculated by the following formula, then the curve was plotted with the Log value of the inhibitor concentration as the X-axis and the inhibition rate as the Y-axis, and the IC50 was calculated using Graphpad 8.0. [formula] […]

[2] = Pharmacokinetic test in mice; type: in vivo
Protocol: For the pharmacokinetic test in mice, 3 male ICR mice, 20 to 25 g, were used, fasted overnight, and administered by tail vein injection (1 mg/kg or 5 mg/kg). Blood was collected before the administration, and at 15 min, 30 min, 1 hour, 2 hours, 4 hours, 8 hours, and 24 hours after the administration. Another 3 mice were taken and administered by oral gavage (5 mg/kg), and blood was collected before the administration, and at 15 min, 30 min, 1 hour, 2 hours, 4 hours, 8 hours, and 24 hours after the administration. Blood samples were centrifuged at 6800 g at 2 to 8°C for 6 min, and plasma was collected and stored at -80°C. The plasma at each time point was taken and added with an acetonitrile solution containing internal standard in 3 to 5 times the amount. The mixture was vortexed and mixed for 1 min, and centrifuged at 13,000 rpm at 4°C for 10 min. The supernatant was collected, added with water in 3 times the amount, and mixed. An appropriate amount of the mixture was taken for LC-MS/MS analysis. The main pharmacokinetic parameters were analyzed using WinNonlin 7.0 software with non-compartmental model. Table 43: Results 1 of pharmacokinetic tests in mice

[3] = Human liver microsome stability test; type: in vitro ADME
Protocol: The human liver microsome stability test was performed by incubating the compound and human liver microsomes in vitro. First, the compound to be tested was prepared into a 10 mM stock solution in DMSO solvent, and then the compound was diluted to 0.5 mM with acetonitrile. Human liver microsomes (Corning) were diluted with PBS into a microsome/buffer solution, and the solution was used to dilute 0.5 mM compound into a working solution, in which the concentration of the compound was 1.5 µM, and the concentration of human liver microsomes was 0.75 mg/mL. A deep-well plate was taken, 30 µL of the working solution was added per well, and then 15 µL of pre-heated 6 mM NADPH solution was added thereto to initiate a reaction, and the reaction was incubated at 37°C. At 0, 5, 15, 30 and 45 min of the incubation, 135 µL of acetonitrile was added to the corresponding wells to terminate the reaction. After the reaction was terminated with acetonitrile at the last time point of 45 min, the deep-well plate was vortexed and shaken for 10 min (600 rpm), and then centrifuged for 15 min. After centrifugation, the supernatant was collected, and added with purified water in a ratio of 1:1 to perform LC-MS/MS detection. A ratio of a peak area of compound to a peak area of internal standard at each time point was obtained, and the peak area ratios of the compound at 5, 15, 30 and 45 min were compared with the peak area ratio at 0 min to calculate the remaining percentage of the compound at each time point. T1/2 was calculated by using GraphPad 5 software. Table 45: Results of human liver microsome stability test

[4] = mouse, plasma, male ICR mice, intravenous injection administration (1 mg/kg)
[5] = mouse, plasma, male ICR mice, oral gavage administration (5 mg/kg)

**Q.** For Cc1cc(OCCN2C[C@H]3COC[C@H]3C2)ccc1-c1ccc(CC(=O)NCc2ccccc2)nc1 [Compound of Formula I, N-benzyl-2-(5-(2-methyl-4-(2-((3aR,6aS)-tetrahydro-1H-furo[3,4-c]pyrrol-5(3H)-yl)ethoxy)phenyl)pyridin-2-yl)acetamide], which IC50 [1] is on record?
**A.** 22.6 nM

**Q.** And the “metabolism in mice in vivo” value ([2]; in words, compared with the control compound)?
**A.** rapid metabolism

**Q.** And the AUC(0-t) [2, 4]?
**A.** 430 ng·h/mL

**Q.** What about the clearance [2, 4] of the same compound?
**A.** 34.5 mL/min/kg

**Q.** And the AUC(0-t) [2, 5]?
**A.** 443 ng·h/mL

**Q.** And the Cmax [2, 5]?
**A.** 322 ng/mL

**Q.** And the half-life at 1 µM ([3]; human liver microsomes, NADPH, 37°C, 0-45 min)?
**A.** 17.2 min

**Q.** And the “metabolism by human liver microsomes” value ([3]; in words)?
**A.** metabolized quickly
